# Test results reported in US12692478B2, “Populations of enriched regulatory T cells and methods for producing same” (Cellenkos Inc., priority 2021, dated 2026).
# What was measured:
# [1] = system: SLE-PBMC; experiment: IFN-gamma release by pathogenic lupus cells (SLE-PBMC); format: cell-based, human; settings: control, non-specific inflammatory stimulus
# Description: FIG. 32 is a bar graph depicting the amount of interferon (IFN)—gamma released by pathogenic lupus cells in the presence or absence of combinations of (1) activated Treg cells; (2) ruxolitinib; and/or (3) camptothecin. Rux=ruxolitinib. SLE-PBMC=peripheral blood mononuclear cells derived from subjects with systemic lupus erythematosus. D6=Day 6.
# [2] = system: graft versus host disease (GVHD); settings: mouse, in vivo
# Description: FIG. 33 depicts a schematic for treatment of a xenogeneic mouse graft versus host disease (GVHD) model with a ruxolitinib and activated Treg cells regimen. PBMC=peripheral blood mononuclear cells.
# A xenogeneic mouse graft versus host disease (GVHD) model was treated with a ruxolitinib and activated CB Treg cells regimen, as depicted in FIG. 33. NSG mice underwent sublethal irradiation on day −1 followed by injection of 1×10^7 donor peripheral blood (PB) mononuclear cells (MNCs) on day 0. Oral ruxolitinib at 1 mg daily was fed continuously to the mice in the presence or absence of 1×10^7 CB Treg cells, tagged with CellTrace™ Violet dye (ThermoFisher), administered on days +4, +7, +11, +18. Mice were followed every other day for weight, GVHD score and survival. Serial blood draws were performed to analyze for cell compartment and cytokine assays.
SMILES,IFNγ secretion from CB Treg cells [1],CB Treg persistence [2]
CC[C@@]1(O)C(=O)OCc2c1cc1n(c2=O)Cc2cc3ccccc3nc2-1 [Camptothecin],does not increase,–
N#CC[C@H](C1CCCC1)n1cc(-c2ncnc3[nH]ccc23)cn1 [ruxolitinib],–,improved CB Treg persistence
